{"source": "patent US5789440A", "about": "“5,6-dihydropyrone derivatives as protease inhibitors and antiviral agents” (Warner-Lambert Company, priority 1994, dated 1998)", "key": {"[1]": {"tested_on": "Streptococcus pyogenes C203", "experiment": "Antibacterial activity, microtitration dilution method", "assay_type": "cell-based", "settings": "read-out: minimum inhibitory concentration (MIC)", "text": "(§1) The compounds of the invention display antibacterial activity when tested by the microtitration dilution method as described in Heifetz, et al., Antimicr. Agents. & Chemoth. 6: 124 (1974) which is incorporated herein by reference.\n(§2) By use of the above referenced method, the following minimum inhibitory concentration values (MICs in μg/mL) were obtained for representative compounds of the invention vs. clinically relevant gram positive pathogens which have become highly resistant to conventional therapy in recent years."}, "[2]": {"tested_on": "Enterococcus foecalis MGH2", "experiment": "Antibacterial activity, microtitration dilution method", "assay_type": "cell-based", "settings": "read-out: minimum inhibitory concentration (MIC)", "text": "as §1, §2"}, "[3]": {"tested_on": "Streptococcus pneumonia 5V-1", "experiment": "Antibacterial activity, microtitration dilution method", "assay_type": "cell-based", "settings": "Streptococcus pneumoniae, 5V1, read-out: minimum inhibitory concentration (MIC)", "text": "as §1, §2"}, "[4]": {"tested_on": "Staphylococcus aureus UC-76", "experiment": "Antibacterial activity, microtitration dilution method", "assay_type": "cell-based", "settings": "UC76, read-out: minimum inhibitory concentration (MIC)", "text": "as §1, §2"}, "[5]": {"tested_on": "Staphylococcus aureus H228", "experiment": "Antibacterial activity, microtitration dilution method", "assay_type": "cell-based", "settings": "read-out: minimum inhibitory concentration (MIC)", "text": "as §1, §2"}, "HIV1iiib in H9 cells": {"tested_on": "HIV1iiib in H9 cells", "experiment": "Antiviral activity in H9 cells (acute HIV-1 infection, reverse transcriptase assay)", "assay_type": "cell-based", "settings": "Human immunodeficiency virus 1, multiplicity of infection 0.01, 0.1% DMSO, read-out: Concentration for 50% Protection", "procedure": "Using the general methods of Pauwels et al., (J. Virol. Methods, 16, 171-185, 1987) and Mann et al. (AIDS Research and Human Retroviruses, 253-255, 1989 (anti-viral assays of active HIV-1 infection were performed in the H9 cell line. Cultures were batch infected in 1 ml of RPM1 1640 media/10% fetal calf serum containing 10^5 infectious doses of HIV1iiib for an effective multiplicity of infection of 0.01. After 2 hours of viral absorption, cells were washed once and palted in 96-wellmicrotiter plates at a density of 10^4 cells per well. Test compounds were added to produce the desired concentration of drug and 0.1% DMSO in a final volume of 200 μl. Uninfected parallel cultures were maintained for XTT cytotoxicity assay at 7 days post infection. Cultures were tested for viral replication by reverse transcriptase assay at 4 and 7 days post infection."}, "HIV-1 Protease": {"biological_target": "T1, HIV-1 Protease (Human immunodeficiency virus type 1 group M subtype B, UniProt P04585)", "T1 construct": "HIV-1 Protease; purchased Bachem Bioscience Inc", "experiment": "HIV protease inhibition (undecapeptide substrate cleavage, HPLC)", "assay_type": "biochemical", "settings": "37° C., 5 min, 40 μM substrate, pH 4.7, 2% DMSO, read-out: 50% INHIBITION CONCENTRATION", "procedure": "1.0 mM dithiothreitol (DTT) was prepared fresh daily in 0.1% polyethylene glycol (mw 8000) 80 mM NaOAc, 160 mM NaCl, 1.0 mM EDTA, and brought to pH 4.7 with HCl.\nThe enzyme is obtained from Bachem Bioscience Inc. The undiluted enzyme is thawed from -80° C. and diluted 50-fold with DTT buffer. The solution is always kept at 0° C. on ice water and used in the experiment within 20 minutes after thawing.\nSubstrate III from Bachem Bioscience Inc. is the undecapeptide H-His-Lys-Ala-Arg-Val-Leu-p-Nitrophenylalanine-Glu-Ala-Norleucine-Ser-NH2 (>97% purity). A 200 μM stock solution in DTT buffer is prepared and stored on ice. Substrate solution is prepared fresh daily.\n10 mM inhibitor (I) in dimethyl sulfoxide (DMSO) is diluted to 200 μM with DTT buffer. From the 200 μM stock solution is made a 10 μM stock solution with 2% DMSO in DTT buffer. The two inhibitor solutions are used to make final [I] =100, 50, 20, 10, 5, 2, 1, 0.5 and 0 μM with 2% DMSO in DTT buffer in each reaction well (total inhibitor volume of 50 μl).\nTo each reaction well is added 20 μl of substrate (final concentration of 40 μM), 50 μl of inhibitor (at a concentration such that final dilution will produce the test concentration) and 20 μl of DTT buffer. The reaction plate (96 wells) is incubated at 37° C. for at least 5 minutes.\n10 μl of the diluted protease is added to the reaction well while the reaction plate is shaking. Once shaken for 10 seconds, the plate is returned to the heating block at 37° C. (final reaction volume 100 μl.)\nThe reaction is incubated for 5 minutes at 37° C. The reaction is stopped by placing the reaction plate on the shaker and adding 20 μl of 10% trifluoroacetic acid (TFA) and shaking for 10 seconds. The amount of proteolysis is then determined by separation of noncleaved substrate and two cleaved products with reverse-phase HPLC, while measuring absorbance at 220 nm to determine the relative peak areas of the three components. The relative peak areas are used to calculate % conversion to product as a function of inhibitor concentration. The data are plotted as % Control (the ratio of % conversion in the presence and absence of inhibitor×100) versus inhibitor concentration and fitted with the equation Y=100/1+(X/IC50)^A, where IC50 is the inhibitor concentration at 50% inhibition and A is the slope of the inhibition curve."}, "HIV": {"tested_on": "HIV", "settings": "R. Nagorny et al., AIDS 7: 129-130 (1993); cited from earlier work"}}}
{"compound": "O=C1OC(CCc2ccccc2)(c2ccccc2)CC(O)=C1SCc1ccc2c(c1)OCO2", "note": "(racemic) [Example 107, 3-(Benzo[1,3]dioxol-5-ylmethylthio)-5,6-dihydro-4-hydroxy-6-phenyl-6-(2-phenylethyl)-2H-pyran-2-one]", "values": [{"measurement": "MIC", "setting": "[1]", "result": 50, "unit": "µg/mL"}, {"measurement": "MIC", "setting": "[2]", "result": 50, "unit": "µg/mL"}, {"measurement": "MIC", "setting": "[3]", "result": 50, "unit": "µg/mL"}, {"measurement": "MIC", "setting": "[4]", "result": 100, "unit": "µg/mL"}, {"measurement": "MIC", "setting": "[5]", "result": 50, "unit": "µg/mL"}, {"measurement": "EC50", "setting": "HIV1iiib in H9 cells", "result": 8, "unit": "µM"}, {"measurement": "IC50", "setting": "HIV-1 Protease", "result": 110, "unit": "nM"}]}
{"compound": "Cc1ccc(C(C)C)c(SC2=C(O)CC(CCc3ccc4c(c3)OCO4)(c3ccccc3)OC2=O)c1", "note": "(stereo not shown) [Example 133]", "values": [{"measurement": "MIC", "setting": "[1]", "result": 25, "unit": "µg/mL"}, {"measurement": "MIC", "setting": "[2]", "result": 25, "unit": "µg/mL"}, {"measurement": "MIC", "setting": "[3]", "result": 12.5, "unit": "µg/mL"}, {"measurement": "MIC", "setting": "[4]", "result": 12.5, "unit": "µg/mL"}, {"measurement": "MIC", "setting": "[5]", "result": 6.25, "unit": "µg/mL"}]}
{"compound": "CC(=O)CC(c1ccccc1)c1c(O)c2ccccc2oc1=O", "note": "(stereo not drawn) [Warfarin, 3-(α-acetonylbenzyl)-4-hydroxycoumarin]", "values": [{"measurement": "inhibition of cell-free and cell-mediated HIV infection (in words)", "setting": "HIV", "result": "inhibiting cell-free and cell-mediated HIV infection"}]}
